Source: patent US12215093B2, “Bicyclic carboxamides and methods of use thereof” (Tempest Therapeutics, Inc., priority 2018, dated 2025)
pIC50: −log10 of the molar value.

Experiments:
EP2 = EP2 (Homo sapiens, UniProt P43116); assay: cell-based;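 note: functional calcium flux assay in stably transfected HEK293 cells expressing EP2 coupled via a promiscuous G protein, clytin luminescence read as area under the curve, 30 min compound preincubation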
Protocol: Each receptor subtype has an additional promiscuous G protein added in order to couple the aforementioned receptor to the calcium signaling pathway. The parental cell line used also expresses a novel variant of clytin, a calcium-activated photo-protein, to enable sensitive luminescent detection. Briefly, cells were plated at 50,000 cells-per-well in black, clear bottom 96-well plates. The plated cells were allowed to sit at room temperature for 30 min prior to transferring to a humidified, 37° C., 5% CO2 incubator for 18 to 24 h. Assay buffer (HBSS with 20 mM HEPES) and loading buffer (assay buffer plus 10 μM coelenterazine) were prepared on the day of the assay. Assays were performed by aspirating media from the assay plate and washing once with assay buffer, then replacing with loading buffer and allowing the cells to incubate for 1.5 h at room temperature. Compounds were prepared in assay buffer at a 3× final concentration in non-binding plates. Compounds were added to the cell plates and incubated for 30 min at room temperature. The prostanoid receptor ligand PGE2 was prepared at a 4× dilution ratio for a final concentration of 10 nM. Plates were run on a Flexstation™ using a 100 ms integration luminescence protocol for a total of 60 sec with ligand addition at 15 sec. Data were obtained from relative light units as measured by area under the curve.

EP4 = target: T1, EP4 (Homo sapiens, UniProt P35408); assay: Functional calcium flux assay, EP4; assay type: cell-based; details: stably transfected HEK293 cells; PGE2 10 nM; read-out: EP4 Ca2+-flux assay IC50
T1 construct: host or cells: stably transfected HEK293 cells co-expressing a promiscuous G protein and a clytin variant
T1 sequence (P35408 whole entry): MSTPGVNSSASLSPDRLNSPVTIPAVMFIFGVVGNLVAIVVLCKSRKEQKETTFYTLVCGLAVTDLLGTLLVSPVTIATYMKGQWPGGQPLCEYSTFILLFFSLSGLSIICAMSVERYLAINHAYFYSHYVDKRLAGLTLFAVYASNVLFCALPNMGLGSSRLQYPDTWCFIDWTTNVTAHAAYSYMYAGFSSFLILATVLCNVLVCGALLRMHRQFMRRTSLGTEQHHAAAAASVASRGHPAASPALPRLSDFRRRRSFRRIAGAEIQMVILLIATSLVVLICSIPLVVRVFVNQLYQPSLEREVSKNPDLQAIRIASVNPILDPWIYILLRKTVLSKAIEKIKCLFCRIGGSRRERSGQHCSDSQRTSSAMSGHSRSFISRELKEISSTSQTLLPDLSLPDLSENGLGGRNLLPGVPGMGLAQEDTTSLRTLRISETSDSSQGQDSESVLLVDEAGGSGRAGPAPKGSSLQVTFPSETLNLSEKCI

Sequence of EP2 (P43116 whole entry): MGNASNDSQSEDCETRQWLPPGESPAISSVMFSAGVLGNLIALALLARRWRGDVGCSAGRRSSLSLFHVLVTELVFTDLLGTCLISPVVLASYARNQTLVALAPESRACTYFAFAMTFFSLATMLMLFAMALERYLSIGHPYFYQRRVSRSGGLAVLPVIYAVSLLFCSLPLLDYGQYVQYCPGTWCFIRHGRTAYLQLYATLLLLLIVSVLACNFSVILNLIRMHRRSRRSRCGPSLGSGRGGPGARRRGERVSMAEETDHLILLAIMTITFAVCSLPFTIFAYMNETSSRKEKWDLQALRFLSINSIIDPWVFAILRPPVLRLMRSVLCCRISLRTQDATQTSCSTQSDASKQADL

| Compound | pIC50 (EP2) | pIC50 (EP4) |
| --- | --- | --- |
| CC(c1ccc(-c2ccccc2)cc1)n1ncc2cccc(C(=O)NC3CC4(C3)CC(C(=O)O)C4)c21 (racemic) [Example 112, (Sa)-6-(1-((racemic)-1-([1,1′-Biphenyl]-4-yl)-ethyl)-1H-indazole-7-carboxamido)spiro[3.3]heptane-2-carboxylic acid] | > 7.60 | 8.74 |
| [2H]C([2H])([2H])C([2H])(c1ccc(-c2ccccc2)cc1)n1ncc2cccc(C(=O)NC3CC4(C3)CC(C(=O)O)C4)c21 (single isomer, unassigned) [Example 169, (Sa)-6-(1-((R) or (S)-1-([1,1′-Biphenyl]-4-yl)ethyl-1,2,2,2-d4)-1H-indazole-7-carboxamido)spiro[3.3]heptane-2-carboxylic acid] | 7.20 | 8.82 |
| CCOc1cc(-c2ccc(Cn3ncc4cc(Cl)cc(C(=O)NC5CC6(C5)CC(C(=O)O)C6)c43)cc2)ccn1 (centres unmarked) [Example 136, (Sa)-6-(5-chloro-1-(4-(2-ethoxypyridin-4-yl)benzyl)-1H-indazole-7-carboxamido)spiro[3.3]heptane-2-carboxylic acid] | > 7.60 | > 9.00 |
| [2H]C([2H])([2H])C([2H])(c1ccc(-c2ccccc2)cc1)n1ncc2c(Cl)ccc(C(=O)NC3CC4(C3)CC(C(=O)O)C4)c21 (single isomer, unassigned) [Example 167, (Sa)-6-(1-((R) or (S)-1-([1,1′-Biphenyl]-4-yl)ethyl-1,2,2,2-d4)-4-chloro-1H-indazole-7-carboxamido)spiro[3.3]heptane-2-carboxylic acid] | 7.39 | 8.46 |
| O=C(NC1CC2(C1)CC(C(=O)O)C2)c1cccc2cnn(Cc3ccc(-c4ccccc4)cc3)c12 (racemic) [Example 33, (racemic)-6-(1-([1,1′-biphenyl]-4-ylmethyl)-1H-indazole-7-carboxamido)spiro[3.3]heptane-2-carboxylic acid] | > 7.60 | 8.52 |

Continued, values first:

| pIC50 (EP2) | pIC50 (EP4) | Compound |
| --- | --- | --- |
| 7.37 | 8.52 | O=C(NC1CC2(C1)CC(C(=O)O)C2)c1ccc(F)c2ccn(Cc3ccc(-c4ccccc4)c(F)c3)c12 (centres unmarked) [Example 65, (Sa)-6-(4-Fluoro-1-((2-fluoro-[1,1′-biphenyl]-4-yl)methyl)-1H-indole-7-carboxamido)spiro[3.3]heptane-2-carboxylic acid] |
| > 7.60 | > 9.00 | COc1ccc(-c2ccc(Cn3ccc4c(F)ccc(C(=O)NC5CC6(C5)CC(C(=O)O)C6)c43)cc2)cc1F (racemic) [Example 16, (racemic)-6-(4-fluoro-1-((3′-fluoro-4′-methoxy-[1,1′-biphenyl]-4-yl)methyl)-1H-indole-7-carboxamido)spiro[3.3]heptane-2-carboxylic acid] |
| > 7.60 | > 9.00 | N#Cc1cccc(-c2ccc(Cn3ccc4c(F)ccc(C(=O)NC5CC6(C5)CC(C(=O)O)C6)c43)cc2)c1 (racemic) [Example 15, (racemic)-6-(1-((3′-cyano-[1,1′-biphenyl]-4-yl)methyl)-4-fluoro-1H-indole-7-carboxamido)spiro[3.3]heptane-2-carboxylic acid] |
| 7.36 | > 9.00 | O=C(NC1CC2(C1)CC(C(=O)O)C2)c1ccc(F)c2ccn(Cc3ccc(N4CCOCC4)cc3)c12 (racemic) [Example 31, (racemic)-6-(4-Fluoro-1-(4-morpholinobenzyl)-1H-indole-7-carboxamido)spiro[3.3]heptane-2-carboxylic acid] |
| 7.19 | 8.49 | COc1ccc2cc(-c3ccc(Cn4ccc5c(F)ccc(C(=O)NC6CC7(CC(CC(=O)O)C7)C6)c54)cc3)ccc2n1 (single isomer, unassigned) [Example 137, (Sa)-2-(6-(4-Fluoro-1-(4-(2-methoxyquinolin-6-yl)benzyl)-1H-indole-7-carboxamido)spiro[3.3]heptan-2-yl)acetic acid] |
